Data: paper PMC2991631 (Biochemical pharmacology, 2010)
Where two headings read alike, the source gives them in different places.

Experiments:
[1] = tested on: carboxylesterases (CE) in human liver microsomal extracts; assay: CE activity; format: biochemical; details: 10μM 876
[2] = tested on: carboxylesterases (hiCE, hCE1) in human liver microsomal extracts; format: biochemical; details: for CPT-11 hydrolysis + 876 / Loss in CPT-11 hydrolysis + 876 / Loss in CPT-11 hydrolysis + 876 [%]: 10μM 876

## O=S(=O)(Nc1c(F)c(F)c(NS(=O)(=O)c2ccc(Br)cc2)c(F)c1F)c1ccc(Br)cc1 [compound 876, N,N'-(2,3,5,6-tetrafluoro-1,4-phenylene)bis(4-bromobenzenesulfonamide)]
[1]; liver microsomal extract HG03
  CE activity + 876: 3759 ± 84 nmol/mg/min
  Loss in CE activity + 876: 2816 nmol/mg/min
  Loss in CE activity + 876 [%]: 42.8%
[1]; liver microsomal extract HG74
  CE activity + 876: 4341 ± 152 nmol/mg/min
  Loss in CE activity + 876: 2866 nmol/mg/min
  Loss in CE activity + 876 [%]: 39.8%
[1]; liver microsomal extract HG93
  CE activity + 876: 2938 ± 87 nmol/mg/min
  Loss in CE activity + 876: 1790 nmol/mg/min
  Loss in CE activity + 876 [%]: 37.9%
[1]; liver microsomal extract HG95
  CE activity + 876: 3285 ± 242 nmol/mg/min
  Loss in CE activity + 876: 1840 nmol/mg/min
  Loss in CE activity + 876 [%]: 35.9%
[1]; liver microsomal extract HG103
  CE activity + 876: 2224 ± 202 nmol/mg/min
  Loss in CE activity + 876: 1482 nmol/mg/min
  Loss in CE activity + 876 [%]: 40.0%
[1]; liver microsomal extract HH13
  CE activity + 876: 672 ± 47 nmol/mg/min
  Loss in CE activity + 876: 221 nmol/mg/min
  Loss in CE activity + 876 [%]: 24.8%
[1]; liver microsomal extract HH61
  CE activity + 876: 3925 ± 125 nmol/mg/min
  Loss in CE activity + 876: 1953 nmol/mg/min
  Loss in CE activity + 876 [%]: 33.2%
[1]; liver microsomal extract HH74
  CE activity + 876: 2235 ± 203 nmol/mg/min
  Loss in CE activity + 876: 1471 nmol/mg/min
  Loss in CE activity + 876 [%]: 39.7%
[1]; liver microsomal extract HK37
  CE activity + 876: 4052 ± 120 nmol/mg/min
  Loss in CE activity + 876: 2280 nmol/mg/min
  Loss in CE activity + 876 [%]: 36%
[1]; liver microsomal extract SD003
  CE activity + 876: 3434 ± 224 nmol/mg/min
  Loss in CE activity + 876: 1809 nmol/mg/min
  Loss in CE activity + 876 [%]: 34.5%
[1]; liver microsomal extract SD004
  CE activity + 876: 3460 ± 234 nmol/mg/min
  Loss in CE activity + 876: 2162 nmol/mg/min
  Loss in CE activity + 876 [%]: 38.5%
[1]; liver microsomal extract SD104
  CE activity + 876: 3493 ± 146 nmol/mg/min
  Loss in CE activity + 876: 1895 nmol/mg/min
  Loss in CE activity + 876 [%]: 35.2%
[1]; liver microsomal extract SD120
  CE activity + 876: 2610 ± 102 nmol/mg/min
  Loss in CE activity + 876: 1885 nmol/mg/min
  Loss in CE activity + 876 [%]: 41.9%
[1]; liver microsomal extract SD123
  CE activity + 876: 3874 ± 101 nmol/mg/min
  Loss in CE activity + 876: 2071 nmol/mg/min
  Loss in CE activity + 876 [%]: 34.8%
[1]; liver microsomal extract SD124
  CE activity + 876: 1997 ± 189 nmol/mg/min
  Loss in CE activity + 876: 1411 nmol/mg/min
  Loss in CE activity + 876 [%]: 41.4%
[1]; liver microsomal extract SD128
  CE activity + 876: 4144 ± 401 nmol/mg/min
  Loss in CE activity + 876: 2169 nmol/mg/min
  Loss in CE activity + 876 [%]: 34.4%
[1]; liver microsomal extract SD132
  CE activity + 876: 5018 ± 209 nmol/mg/min
  Loss in CE activity + 876: 3176 nmol/mg/min
  Loss in CE activity + 876 [%]: 38.8%
[1]; liver microsomal extract SD134
  CE activity + 876: 345 ± 28 nmol/mg/min
  Loss in CE activity + 876: 197 nmol/mg/min
  Loss in CE activity + 876 [%]: 36.4%
[1]; liver microsomal extract SD136
  CE activity + 876: 1719 ± 243 nmol/mg/min
  Loss in CE activity + 876: 1477 nmol/mg/min
  Loss in CE activity + 876 [%]: 46.2%
[2]; liver microsomal extract HG03
  CPT-11 hydrolysis + 876: 29.6 ± 0.64 pmol/mg/h
  Loss in CPT-11 hydrolysis + 876: 14.7 pmol/mg/h
  Loss in CPT-11 hydrolysis + 876 [%]: 33.1%
[2]; liver microsomal extract HG74
  CPT-11 hydrolysis + 876: 25.8 ± 1.1 pmol/mg/h
  Loss in CPT-11 hydrolysis + 876: 14.1 pmol/mg/h
  Loss in CPT-11 hydrolysis + 876 [%]: 35.3%
[2]; liver microsomal extract HG93
  CPT-11 hydrolysis + 876: 18.2 ± 0.42 pmol/mg/h
  Loss in CPT-11 hydrolysis + 876: 12.4 pmol/mg/h
  Loss in CPT-11 hydrolysis + 876 [%]: 40.5%
[2]; liver microsomal extract HG95
  CPT-11 hydrolysis + 876: 16.2 ± 0.21 pmol/mg/h
  Loss in CPT-11 hydrolysis + 876: 8.30 pmol/mg/h
  Loss in CPT-11 hydrolysis + 876 [%]: 33.9%
[2]; liver microsomal extract HG103
  CPT-11 hydrolysis + 876: 19.4 ± 0.14 pmol/mg/h
  Loss in CPT-11 hydrolysis + 876: 13.2 pmol/mg/h
  Loss in CPT-11 hydrolysis + 876 [%]: 40.1%
[2]; liver microsomal extract HH13
  CPT-11 hydrolysis + 876: 18.5 ± 0.14 pmol/mg/h
  Loss in CPT-11 hydrolysis + 876: 15.4 pmol/mg/h
  Loss in CPT-11 hydrolysis + 876 [%]: 45.4%
[2]; liver microsomal extract HH61
  CPT-11 hydrolysis + 876: 13.4 ± 0.07 pmol/mg/h
  Loss in CPT-11 hydrolysis + 876: 8.80 pmol/mg/h
  Loss in CPT-11 hydrolysis + 876 [%]: 39.7%
[2]; liver microsomal extract HH74
  CPT-11 hydrolysis + 876: 7.14 ± 0.23 pmol/mg/h
  Loss in CPT-11 hydrolysis + 876: 8.22 pmol/mg/h
  Loss in CPT-11 hydrolysis + 876 [%]: 53.5%
[2]; liver microsomal extract HK37
  CPT-11 hydrolysis + 876: 17.0 ± 0.57 pmol/mg/h
  Loss in CPT-11 hydrolysis + 876: 18.4 pmol/mg/h
  Loss in CPT-11 hydrolysis + 876 [%]: 51.9%
[2]; liver microsomal extract SD003
  CPT-11 hydrolysis + 876: 34.2 ± 0.92 pmol/mg/h
  Loss in CPT-11 hydrolysis + 876: 20.5 pmol/mg/h
  Loss in CPT-11 hydrolysis + 876 [%]: 37.5%
[2]; liver microsomal extract SD004
  CPT-11 hydrolysis + 876: 19.3 ± 1.0 pmol/mg/h
  Loss in CPT-11 hydrolysis + 876: 14.6 pmol/mg/h
  Loss in CPT-11 hydrolysis + 876 [%]: 43.0%
[2]; liver microsomal extract SD104
  CPT-11 hydrolysis + 876: 13.7 ± 0.07 pmol/mg/h
  Loss in CPT-11 hydrolysis + 876: 5.80 pmol/mg/h
  Loss in CPT-11 hydrolysis + 876 [%]: 29.8%
[2]; liver microsomal extract SD120
  CPT-11 hydrolysis + 876: 18.5 ± 0.14 pmol/mg/h
[2]; liver microsomal extract SD123
  CPT-11 hydrolysis + 876: 17 ± 0.14 pmol/mg/h
  Loss in CPT-11 hydrolysis + 876: 13.0 pmol/mg/h
  Loss in CPT-11 hydrolysis + 876 [%]: 43.2%
[2]; liver microsomal extract SD124
  CPT-11 hydrolysis + 876: 15.8 ± 0.28 pmol/mg/h
  Loss in CPT-11 hydrolysis + 876: 11.3 pmol/mg/h
  Loss in CPT-11 hydrolysis + 876 [%]: 41.7%
[2]; liver microsomal extract SD128
  CPT-11 hydrolysis + 876: 16.5 ± 0.35 pmol/mg/h
  Loss in CPT-11 hydrolysis + 876: 13.1 pmol/mg/h
  Loss in CPT-11 hydrolysis + 876 [%]: 44.3%
[2]; liver microsomal extract SD132
  CPT-11 hydrolysis + 876: 14.1 ± 0.50 pmol/mg/h
  Loss in CPT-11 hydrolysis + 876: 12.6 pmol/mg/h
  Loss in CPT-11 hydrolysis + 876 [%]: 47.2%
[2]; liver microsomal extract SD134
  CPT-11 hydrolysis + 876: 8.49 ± 0.18 pmol/mg/h
  Loss in CPT-11 hydrolysis + 876: 8.96 pmol/mg/h
  Loss in CPT-11 hydrolysis + 876 [%]: 51.3%
[2]; liver microsomal extract SD136
  CPT-11 hydrolysis + 876: 33.6 ± 0.64 pmol/mg/h
  Loss in CPT-11 hydrolysis + 876: 21.8 pmol/mg/h
  Loss in CPT-11 hydrolysis + 876 [%]: 39.3%
[2]; selective hiCE inhibitor 876
  effect on CPT-11 activation in liver microsomal samples: unable to reduce the levels of CPT-11 activation in liver microsomal samples to zero
